Measurements taken from patent US20170247429A1, “BLOOD-BRAIN BARRIER DISRUPTING AGENTS AND USES THEREOF” (TEL HASHOMER MEDICAL RESEARCH INFRASTRUCTURE AND SERVICES …, priority 2014, published 2017).

What was measured:
[1] = test system: intracranial CNS-1 glioma tumors; test: Survival of glioma-bearing rats (Kaplan-Meier); assay type: in vivo, Lewis male rats; settings: rats bearing intracranial CNS-1 glioma; monitored up to 60 days
Experimental: The three rats groups were monitored for survival. Rats were monitored daily and sacrificed when lost>20% of body weight and/or were unable to eat or drink. Rats were monitored up to 60 days after the tumor cell implantation. The Kaplan-Meier survival curves were analyzed according to the Wilcoxon test.

[2] = rat, in vivo, ip, 6 mg/kg
Experimental: Additionally, MTX was administered intraperitoneally to naïve rats (n=26) at a dosage of 6 mg/kg body weight on days 0, 2 and 4. […] The combined administration, MTX even at three times of its maximal tolerated dose, with folinic acid prevented MTX toxicity.

[3] = test system: brain-glioma (CNS-1) tumor; test: Tumor growth in glioma rat model (T1-weighted MRI tumor volumes); assay type: in vivo, Lewis male rats; settings: MTX 6 mg/kg IP, EA-HSA 0.5 mg/ml CED where combined
Experimental: Intracranial inoculation of the tumor was performed as follows: a midline scalp incision was carried out under general anesthesia in order to locate the bregma. A burr hole (1 mm) was drilled on the right side, 3 mm anterior and 2 mm lateral to the bregma. A 33-gauge needle attached to a 1,000 μl syringe was placed stereotactically into the striatum to a depth of 5 mm through which a pellet of 2×10^5 CNS-1 rat glioma cells precipitated in 10 μl PBS buffer was infused into the striatum. The infusion was performed with a BASI syringe pump at a rate of 2 μl/min over a period of 5 min. The burr hole was sealed with bone wax to avoid the tumors from growing out of the skull. The intracranial inoculation of the tumor is designated Day-4 in Table 2.
EA-HSA was administered by CED into the rat brains under full anesthesia. For CED, a midline scalp incision was made under anesthesia to identify the bregma. Then, a burr hole (1 mm) was made in the right region of the skull, 3 mm anterior and 2 mm lateral to the bregma. […]
The volume (in mm^3) of BBB disruption and the increase in tumor volume were calculated from T1-weighted MR images. […] The number of pixels in the ROIs was then counted and multiplied by the volume of a single pixel (voxel). Tumor growth rates were calculated by dividing the tumor volumes at days 2 and 7 post treatment with the baseline tumor volumes (measured at day 0).

In the case of `CN(Cc1cnc2nc(N)nc(N)c2n1)c1ccc(C(=O)N[C@@H](CCC(=O)O)C(=O)O)cc1` [MTX, Methotrexate], the median survival time [1] is reported as 12 days, the “toxicity of MTX regimen” value [2] is reported as “symptomatic toxicity” and the “tumor volume normalized to day 0 (tumor growth rate)” value ([3]; day 2 post treatment) is reported as 2.2±0.4. For the same compound, the “tumor volume normalized to day 0 (tumor growth rate)” value ([3]; day 7 post treatment) was 2.2±0.4.
